Biological target: Carbonic anhydrase 9 (Homo sapiens, UniProt Q16790)
Description: Inhibition of recombinant human carbonic anhydrase 9 catalytic domain expressed in Escherichia coli incubated for 15 mins prior to testing by stopped flow CO2 hydrase assay

Structure (SMILES) | Ki [µM]
CC1(C)CC(=O)C2=C(C1)N(c1ccc(S(N)(=O)=O)cc1)C1=C(C(=O)CC(C)(C)C1)C2c1cccc(N)c1 | 0.92
Cc1ccc(S(=O)(=O)Nc2cccc(C3C4=C(CC(C)(C)CC4=O)N(c4ccc(S(N)(=O)=O)cc4)C4=C3C(=O)CC(C)(C)C4)c2)cc1 | 0.1
CC1(C)CC(=O)C2=C(C1)N(c1ccc(S(N)(=O)=O)cc1)C1=C(C(=O)CC(C)(C)C1)C2c1ccc(N)cc1 | 1
COc1ccc(S(=O)(=O)Nc2cccc(C3C4=C(CC(C)(C)CC4=O)N(c4ccc(S(N)(=O)=O)cc4)C4=C3C(=O)CC(C)(C)C4)c2)cc1 | 0.8
CC1(C)CC(=O)C2=C(C1)N(c1ccc(S(N)(=O)=O)cc1)C1=C(C(=O)CC(C)(C)C1)C2c1ccc(NS(=O)(=O)c2ccc(Br)cc2)cc1 | 1.12
CC1(C)CC(=O)C2=C(C1)N(c1ccc(S(N)(=O)=O)cc1)C1=C(C(=O)CC(C)(C)C1)C2c1ccc(NS(=O)(=O)c2ccccc2)cc1 | 0.58
COc1ccc(S(=O)(=O)Nc2ccc(C3C4=C(CC(C)(C)CC4=O)N(c4ccc(S(N)(=O)=O)cc4)C4=C3C(=O)CC(C)(C)C4)cc2)cc1 | 0.44
CC1(C)CC(=O)C2=C(C1)N(c1ccc(S(N)(=O)=O)cc1)C1=C(C(=O)CC(C)(C)C1)C2c1cccc(NS(=O)(=O)c2ccc3ccccc3c2)c1 | 0.81

The remaining molecules from weak to strong by Ki, led by results:

Ki [µM] | Structure (SMILES)
0.28 | CC1(C)CC(=O)C2=C(C1)N(c1ccc(S(N)(=O)=O)cc1)C1=C(C(=O)CC(C)(C)C1)C2c1ccc(NS(=O)(=O)c2ccc3ccccc3c2)cc1
0.25 | CC1(C)CC(=O)C2=C(C1)N(c1ccc(S(N)(=O)=O)cc1)C1=C(C(=O)CC(C)(C)C1)C2c1cccc(NS(=O)(=O)c2ccc(Br)cc2)c1
0.11 | CC1(C)CC(=O)C2=C(C1)N(c1ccc(S(N)(=O)=O)cc1)C1=C(C(=O)CC(C)(C)C1)C2c1cccc(NS(=O)(=O)c2ccccc2)c1
0.1 | Cc1ccc(S(=O)(=O)Nc2ccc(C3C4=C(CC(C)(C)CC4=O)N(c4ccc(S(N)(=O)=O)cc4)C4=C3C(=O)CC(C)(C)C4)cc2)cc1
